Laboratory results published in patent publication US11780832B2, “Lactivicin compounds, their preparation and use as antibacterial agents” (priority 2021, dated 2023).
In brackets after ≈: the same amount, converted by molar mass.

Assays:
Test in all cases: MIC, CLSI broth microdilution
Assay type in all cases: cell-based
[1] = tested on: Acinetobacter baumannii ATCC 19606; conditions: ATCC19606
Description: (§1) Gram-negative and Gram-positive bacterial strains used during the in vitro minimum inhibitory concentration (MIC) determination were obtained either from the American Type Culture Collection (ATCC) or from clinical specimens. All strains were characterized genotypically and the respective antibiotic resistance markers for each strain were identified.
(§2) Isolates were sub-cultured onto appropriate media and stocked in skim milk at −80° C. Following two subcultures from frozen stock, in vitro antimicrobial susceptibility testing was performed using the Clinical and Laboratory Standards Institute (CLSI) broth microdilution method. Briefly, fresh cultures were suspended in culture media to give a final stock inoculum size of 5×10^7 colony forming units per milliliter of broth (CFU/mL). […] 100 μL of the stock solutions were added to the first wells in a 96-well plate and were then diluted using a 2-fold dilution method to give a range of 32-0.025 μg/mL. 100 μL of the bacterial suspensions were then added to the 96-well plates to give a final working inoculum size of 5×10^5 CFU/mL. The final compound concentration range was 16-0.0125 μg/mL. […] MICs for comparator agents were determined using custom-designed, in-house prepared 96-well broth microdilution panels.

[2] = tested on: Citrobacter freundii species complex OXA-181; conditions: Citrobacter freundii species complex, OXA-181; read-out: MIC
Description: as §1, §2

[3] = tested on: Enterobacter cloacae species complex NDM-1
Description: as §1, §2

[4] = tested on: Escherichia coli ATCC 25922; conditions: ATCC25922
Description: as §1, §2

Escherichia coli CMY-2 = conditions: CMY2
Description: as §1, §2

[5] = tested on: Escherichia coli CTX-M-15; conditions: CTXM15
Description: as §1, §2

[6] = tested on: Escherichia coli Empty pSMART plasmid
Description: as §1, §2

[7] = tested on: Escherichia coli Isogenic TEM-10
Description: as §1, §2

[8] = tested on: Escherichia coli Isogenic TEM-26
Description: as §1, §2

Escherichia coli SHV-12 = conditions: SHV12
Description: as §1, §2

[9] = tested on: Escherichia coli pSMART_Cfreundii_AmpC
Description: as §1, §2

[10] = tested on: Escherichia coli pSMART_Ecloacae_AmpC
Description: as §1, §2

[11] = tested on: Klebsiella aerogenes VIM-1, SHV-12
Description: as §1, §2

[12] = tested on: Klebsiella oxytoca KPC-2, TEM-1; conditions: KPC-2, TEM-1, read-out: MIC
Description: as §1, §2

[13] = tested on: Klebsiella pneumoniae KPC-2; conditions: KPC2
Description: as §1, §2

[14] = tested on: Klebsiella pneumoniae KPC-3; conditions: KPC3, KPC-3, read-out: MIC
Description: as §1, §2

[15] = tested on: Klebsiella pneumoniae OXA-163, OXA-1_OXA-30, SHV-1, TEM-1
Description: as §1, §2

[16] = tested on: Klebsiella pneumoniae OXA-48, SHV-1
Description: as §1, §2

[17] = tested on: Klebsiella pneumoniae SHV-12; conditions: SHV12, SHV-12, read-out: MIC
Description: as §1, §2

[18] = tested on: Pseudomonas aeruginosa ATCC 27853; conditions: ATCC27853
Description: as §1, §2

[19] = tested on: Pseudomonas aeruginosa AmpC overexpressed
Description: as §1, §2

[20] = tested on: Pseudomonas aeruginosa OprD negative
Description: as §1, §2

[21] = tested on: Serratia marcescens AmpC overexpressed
Description: as §1, §2

[22] = tested on: Serratia marcescens SME-2; conditions: SME2
Description: as §1, §2

SMILES | MIC [1] | MIC [2] | MIC [3] | MIC [4] | MIC (Escherichia coli CMY-2) | MIC [5] | MIC [6] | MIC [7] | MIC [8] | MIC (Escherichia coli SHV-12) | MIC [9] | MIC [10] | MIC [11] | MIC [12] | MIC [13] | MIC [14] | MIC [15] | MIC [16] | MIC [17] | MIC [18] | also measured
Nc1nc(/C(=N/OC(CO)(CCl)C(=O)O)C(=O)N[C@H]2CON(C3(C(=O)O)C[C@H](N4C(=O)c5cc(O)c(O)cc5C4=O)C(=O)O3)C2=O)cs1 (stereo partly drawn) [Cmpd 6, (4S)-2-[(4S)-4-{[(2Z)-2-(2-amino-1,3-thiazol-4-yl)-2-{[(2-carboxy-1-chloro-3-hydroxypropan-2-yl)oxy]imino}acetyl]amino}-3-oxo-1,2-oxazolidin-2-yl]-4-(5,6-dihydroxy-1,3-dioxo-1,3-dihydro-2H-isoindol-2-yl)-5-oxooxolane-2-carboxylic acid] | 0.12 µg/mL (≈ 0.168 µM) | ≤ 0.015 µg/mL | 0.25 µg/mL (≈ 0.351 µM) | 0.12 µg/mL (≈ 0.168 µM) | 1 µg/mL (≈ 1.4 µM) | 2 µg/mL (≈ 2.81 µM) | ≤ 0.015 µg/mL | ≤ 0.015 µg/mL | ≤ 0.015 µg/mL | 1 µg/mL (≈ 1.4 µM) | 0.06 µg/mL (≈ 0.0842 µM) | 0.06 µg/mL (≈ 0.0842 µM) | 0.5 µg/mL (≈ 0.701 µM) | ≤ 0.015 µg/mL | 0.03 µg/mL (≈ 0.0421 µM) | 0.03 µg/mL (≈ 0.0421 µM) | 0.03 µg/mL (≈ 0.0421 µM) | ≤ 0.015 µg/mL | ≤ 0.015 µg/mL | 0.25 µg/mL (≈ 0.351 µM) | MIC [19]: 1 µg/mL (≈ 1.4 µM); MIC [20]: 2 µg/mL (≈ 2.81 µM); MIC [21]: 0.12 µg/mL (≈ 0.168 µM); MIC [22]: 0.06 µg/mL (≈ 0.0842 µM)
CC(C)(O/N=C(\C(=O)N[C@H]1CON(C2(C(=O)O)C[C@H](N3Cc4cc(O)c(O)cc4C3=O)C(=O)O2)C1=O)c1csc(N)n1)C(=O)O (stereo partly drawn) [Cmpd 35, (4S)-2-[(4S)-4-{[(2Z)-2-(2-amino-1,3-thiazol-4-yl)-2-{[(2-carboxypropan-2-yl)oxy]imino}acetyl]amino}-3-oxo-1,2-oxazolidin-2-yl]-4-(5,6-dihydroxy-1-oxo-1,3-dihydro-2H-isoindol-2-yl)-5-oxooxolane-2-carboxylic acid] | 0.25 µg/mL (≈ 0.385 µM) | 0.25 µg/mL (≈ 0.385 µM) | 1 µg/mL (≈ 1.54 µM) | 0.5 µg/mL (≈ 0.771 µM) | 8 µg/mL (≈ 12.3 µM) | 1 µg/mL (≈ 1.54 µM) | 0.06 µg/mL (≈ 0.0925 µM) | 0.06 µg/mL (≈ 0.0925 µM) | 0.12 µg/mL (≈ 0.185 µM) | 1 µg/mL (≈ 1.54 µM) | 0.5 µg/mL (≈ 0.771 µM) | 0.25 µg/mL (≈ 0.385 µM) | 1 µg/mL (≈ 1.54 µM) | 0.0149 µg/mL (≈ 0.023 µM) | 0.12 µg/mL (≈ 0.185 µM) | 0.25 µg/mL (≈ 0.385 µM) | 0.5 µg/mL (≈ 0.771 µM) | 0.03 µg/mL (≈ 0.0463 µM) | 0.06 µg/mL (≈ 0.0925 µM) | 0.5 µg/mL (≈ 0.771 µM) | MIC [19]: 2 µg/mL (≈ 3.08 µM); MIC [20]: 0.5 µg/mL (≈ 0.771 µM); MIC [21]: 0.5 µg/mL (≈ 0.771 µM); MIC [22]: 0.25 µg/mL (≈ 0.385 µM)
Nc1nc(/C(=N/OC2(C(=O)O)CCC(F)(Cl)CC2)C(=O)N[C@H]2CON(C3(C(=O)O)C[C@H](N4C(=O)c5cc(O)c(O)cc5C4=O)C(=O)O3)C2=O)cs1 (stereo partly drawn) [Cmpd 11, (4S)-2-[(4S)-4-{[(2Z)-2-(2-amino-1,3-thiazol-4-yl)-2-{[(1-carboxy-4-chloro-4-fluorocyclohexyl)oxy]imino}acetyl]amino}-3-oxo-1,2-oxazolidin-2-yl]-4-(5,6-dihydroxy-1,3-dioxo-1,3-dihydro-2H-isoindol-2-yl)-5-oxooxolane-2-carboxylic acid] | 0.25 µg/mL (≈ 0.331 µM) | 0.03 µg/mL (≈ 0.0397 µM) | 2 µg/mL (≈ 2.65 µM) | 0.12 µg/mL (≈ 0.159 µM) | 1 µg/mL (≈ 1.32 µM) | 2 µg/mL (≈ 2.65 µM) | ≤ 0.015 µg/mL | 0.06 µg/mL (≈ 0.0795 µM) | 0.03 µg/mL (≈ 0.0397 µM) | 2 µg/mL (≈ 2.65 µM) | 0.06 µg/mL (≈ 0.0795 µM) | 0.06 µg/mL (≈ 0.0795 µM) | 0.12 µg/mL (≈ 0.159 µM) | ≤ 0.015 µg/mL | 0.03 µg/mL (≈ 0.0397 µM) | 0.06 µg/mL (≈ 0.0795 µM) | 0.12 µg/mL (≈ 0.159 µM) | ≤ 0.015 µg/mL | 0.03 µg/mL (≈ 0.0397 µM) | 0.25 µg/mL (≈ 0.331 µM) | MIC [19]: 2 µg/mL (≈ 2.65 µM); MIC [20]: 0.25 µg/mL (≈ 0.331 µM); MIC [21]: 0.06 µg/mL (≈ 0.0795 µM); MIC [22]: 0.06 µg/mL (≈ 0.0795 µM)
CC(C)(O/N=C(\C(=O)N[C@H]1CON(C2(C(=O)O)C[C@@H](N3C(=O)c4cc(O)c(O)cc4C3=O)C(=O)O2)C1=O)c1csc(N)n1)C(=O)O (stereo partly drawn) [Cmpd 40, (4R)-2-[(4S)-4-{[(2Z)-2-(2-amino-1,3-thiazol-4-yl)-2-{[(2-carboxypropan-2-yl)oxy]imino}acetyl]amino}-3-oxo-1,2-oxazolidin-2-yl]-4-(5,6-dihydroxy-1,3-dioxo-1,3-dihydro-2H-isoindol-2-yl)-5-oxooxolane-2-carboxylic acid] | 0.12 µg/mL (≈ 0.181 µM) | 0.25 µg/mL (≈ 0.377 µM) | 2 µg/mL (≈ 3.02 µM) | 0.06 µg/mL (≈ 0.0906 µM) | 2 µg/mL (≈ 3.02 µM) | 2 µg/mL (≈ 3.02 µM) | ≤ 0.015 µg/mL | 0.03 µg/mL (≈ 0.0453 µM) | ≤ 0.015 µg/mL | 1 µg/mL (≈ 1.51 µM) | 0.12 µg/mL (≈ 0.181 µM) | 0.06 µg/mL (≈ 0.0906 µM) | 0.25 µg/mL (≈ 0.377 µM) | ≤ 0.015 µg/mL | ≤ 0.015 µg/mL | 0.03 µg/mL (≈ 0.0453 µM) | 0.06 µg/mL (≈ 0.0906 µM) | 0.03 µg/mL (≈ 0.0453 µM) | ≤ 0.015 µg/mL | 0.12 µg/mL (≈ 0.181 µM) | MIC [19]: 8 µg/mL (≈ 12.1 µM); MIC [20]: 0.12 µg/mL (≈ 0.181 µM); MIC [21]: 0.12 µg/mL (≈ 0.181 µM); MIC [22]: 0.06 µg/mL (≈ 0.0906 µM)
Nc1nc(/C(=N/OC2(C(=O)O)CCC(Cl)(Cl)CC2)C(=O)N[C@H]2CON(C3(C(=O)O)C[C@H](N4C(=O)c5cc(O)c(O)cc5C4=O)C(=O)O3)C2=O)cs1 (stereo partly drawn) [Cmpd 12, (4S)-2-[(4S)-4-{[(2Z)-2-(2-amino-1,3-thiazol-4-yl)-2-{[(1-carboxy-4,4-dichlorocyclohexyl)oxy]imino}acetyl]amino}-3-oxo-1,2-oxazolidin-2-yl]-4-(5,6-dihydroxy-1,3-dioxo-1,3-dihydro-2H-isoindol-2-yl)-5-oxooxolane-2-carboxylic acid] | 0.25 µg/mL (≈ 0.324 µM) | 0.03 µg/mL (≈ 0.0389 µM) | 2 µg/mL (≈ 2.59 µM) | 0.25 µg/mL (≈ 0.324 µM) | 1 µg/mL (≈ 1.3 µM) | 4 µg/mL (≈ 5.18 µM) | 0.03 µg/mL (≈ 0.0389 µM) | 0.06 µg/mL (≈ 0.0778 µM) | 0.06 µg/mL (≈ 0.0778 µM) | 2 µg/mL (≈ 2.59 µM) | 0.06 µg/mL (≈ 0.0778 µM) | 0.06 µg/mL (≈ 0.0778 µM) | 0.5 µg/mL (≈ 0.648 µM) | ≤ 0.015 µg/mL | 0.06 µg/mL (≈ 0.0778 µM) | 0.06 µg/mL (≈ 0.0778 µM) | 0.12 µg/mL (≈ 0.156 µM) | ≤ 0.015 µg/mL | 0.03 µg/mL (≈ 0.0389 µM) | 0.25 µg/mL (≈ 0.324 µM) | MIC [19]: 2 µg/mL (≈ 2.59 µM); MIC [20]: 0.25 µg/mL (≈ 0.324 µM); MIC [21]: 0.25 µg/mL (≈ 0.324 µM); MIC [22]: 0.12 µg/mL (≈ 0.156 µM)
Nc1nc(/C(=N/OC2(C(=O)O)CCC2)C(=O)N[C@H]2CON(C3(C(=O)O)C[C@H](N4C(=O)c5cc(O)c(O)cc5C4=O)C(=O)O3)C2=O)cs1 (stereo partly drawn) [Cmpd 4, (4S)-2-[(4S)-4-{[(2Z)-2-(2-amino-1,3-thiazol-4-yl)-2-{[(1-carboxycyclobutyl)oxy]imino}acetyl]amino}-3-oxo-1,2-oxazolidin-2-yl]-4-(5,6-dihydroxy-1,3-dioxo-1,3-dihydro-2H-isoindol-2-yl)-5-oxooxolane-2-carboxylic acid] | 0.12 µg/mL (≈ 0.178 µM) | 0.06 µg/mL (≈ 0.0889 µM) | 0.25 µg/mL (≈ 0.371 µM) | 0.25 µg/mL (≈ 0.371 µM) | 2 µg/mL (≈ 2.96 µM) | 1 µg/mL (≈ 1.48 µM) | ≤ 0.015 µg/mL | 0.03 µg/mL (≈ 0.0445 µM) | 0.06 µg/mL (≈ 0.0889 µM) | 1 µg/mL (≈ 1.48 µM) | 0.12 µg/mL (≈ 0.178 µM) | 0.06 µg/mL (≈ 0.0889 µM) | 1 µg/mL (≈ 1.48 µM) | ≤ 0.015 µg/mL | 0.06 µg/mL (≈ 0.0889 µM) | 0.03 µg/mL (≈ 0.0445 µM) | 0.06 µg/mL (≈ 0.0889 µM) | ≤ 0.015 µg/mL | 0.03 µg/mL (≈ 0.0445 µM) | 0.25 µg/mL (≈ 0.371 µM) | MIC [19]: 1 µg/mL (≈ 1.48 µM); MIC [20]: 1 µg/mL (≈ 1.48 µM); MIC [21]: 0.12 µg/mL (≈ 0.178 µM); MIC [22]: 0.06 µg/mL (≈ 0.0889 µM)
